The source of these data is patent US12257238B2, “Magnesium biotinate compositions and methods of use” (Nutrition21, LLC, priority 2016, dated 2025).

Molecules are shown by their SMILES. In brackets after ≈: the same amount, converted by molar mass. Where two headings read alike, the source gives them in different places.

The nature of one data set: in vivo. Conditions: male, Sprague-Dawley, rat, serum, oral.
Another data set deals with Liver cGMP. The data set can be described thus: Liver cGMP in rats. Conditions: 30 days, mean. Format: in vivo, male Sprague-Dawley rats.
For data set [1] the following is noted: cited from earlier work.
Data set [2] in a line: Absorption study in rats: serum, liver and brain biotin. Conditions: for Brain Biotin / Liver Biotin / Serum Biotin: 30 days, mean.
A short description of data set [3]: Solubility of magnesium D-biotinate. Conditions: for Solubility in water: compared with biotin.
Data set [4] can be described thus: Stability of magnesium D-biotinate (storage, hygroscopicity, light). Format: physicochemical.
The mark [5] stands for this setting: 1 mg/kg body weight, listed as B, 1 mg/kg.
[6] abbreviates: 100 mg/kg body weight, listed as B, 100 mg/kg.
The mark [7] stands for this setting: 0.01 mg/kg body weight, listed as MgB, 0.01 mg/kg.
The mark [8] stands for this setting: 1 mg/kg body weight, listed as MgB, 1 mg/kg.
Setting [9] is: 100 mg/kg body weight, listed as MgB, 100 mg/kg.

As to `O=C(O)CCCC[C@@H]1SC[C@@H]2NC(=O)N[C@@H]21` [Biotin, D-biotin], the concentration at 30 days stood at 23.6 nM in the data set “in vivo” (0.01 mg/kg), 137 nM in “in vivo” (1 mg/kg) and 3520 nM in the data set “in vivo” (100 mg/kg). For the same compound, the “Liver cGMP” value in the data set with Liver cGMP (0.01 mg/kg body weight) is on record as 8.46 pmol/mg protein; in the data set on Liver cGMP (1 mg/kg body weight), 12.01 pmol/mg protein; in the data set with Liver cGMP (100 mg/kg body weight) it was 14.68 pmol/mg protein. Moreover, the “Solubility” value in data set [1] (Benzene) was “Soluble”; in data set [1] (Dimethyl sulfoxide (DMSO)), 4.9 g/100 mL; in data set [1] (Ethanol), 80 mg/100 mL; in data set [1] (Methanol), 80 mg/100 mL; in data set [1] (N,N-Dimethylformamide (DMF)) it was 170 mg/100 mL; in data set [1] (N,N-dimethylformamide, Merck Index), 1.7 mg/mL (≈ 6.96 mM). Also, the Solubility is 22 mg/100 mL in data set [1] (Water) and “insoluble” in data set [1] (other common organic solvents, Merck Index). For the same compound, the figures for the “Brain Biotin” value in data set [2] (0.01 mg/kg body weight), in data set [2] (setting [5]) and in data set [2] (setting [6]) were 0.14 nmol/g, 0.42 nmol/g and 1.37 nmol/g, respectively. The “Liver Biotin” value in data set [2] (0.01 mg/kg body weight, listed as B, 0.01 mg/kg) worked out at 0.02 nmol/g; in data set [2] (setting [5]), 0.56 nmol/g; in data set [2] (setting [6]), 1.38 nmol/g.
With `[O]=[Mg]` [MgO, magnesium oxide], the “Solubility” value in data set [1] (Benzene) was “salts insoluble”; in data set [1] (Dimethyl sulfoxide (DMSO)), “MgO insoluble;”; in data set [1] (Ethanol) it was “MgO insoluble;”; in data set [1] (Methanol) it was “MgO insoluble;”; in data set [1] (N,N-Dimethylformamide (DMF)), “MgO insoluble;”; in data set [1] (Water), “MgO insoluble;”.
As to `O=C(O)CCCC[C@@H]1SC[C@@H]2NC(=O)N[C@@H]21` [magnesium D-biotinate], the Solubility in data set [3] (Water) was roughly 10000 µg/mL (≈ 40.9 mM); in data set [3] (water), no less than 10000 µg/mL. Besides, the “Solubility in water” value is on record as “unexpectedly soluble in water” in data set [3] (water) and “significantly improved solubility” in data set [3] (water, listed as magnesium biotinate). For the same compound, the Storage stability entry in data set [4] (30 days at 40% relative humidity and 25° C.) is listed as “stable”; in data set [4] (30 days at 40% relative humidity and 25° C., listed as Magnesium biotinate), “no signs of degradation”; in data set [4] (30 days at 75% relative humidity and 40° C.) it was “stable”; in data set [4] (30 days at 75% relative humidity and 40° C., listed as Magnesium biotinate) it was “no signs of degradation”; in data set [4] (room temperature) it was “stable”. The “Stability on exposure to light” value is given as “stable upon exposure to light” in data set [4] (amorphous solid) and “did not change color” in data set [4] (amorphous solid, listed as Magnesium biotinate). In data set [4] (amorphous solid, as measured by weight), the Hygroscopicity result was “not hygroscopic”. Further, the figures for the “Liver cGMP” value with Liver cGMP (0.01 mg/kg body weight), in the data set with Liver cGMP (1 mg/kg body weight) and with Liver cGMP (100 mg/kg body weight) were 8.60 pmol/mg protein, 13.04 pmol/mg protein and 17.07 pmol/mg protein, respectively. The figures for the “Liver Biotin” value in data set [2] (setting [7]), in data set [2] (setting [8]) and in data set [2] (setting [9]) were 0.03 nmol/g, 0.71 nmol/g and 1.62 nmol/g, respectively. The “Serum Biotin” value was determined as 23.41 nmol/L in data set [2] (setting [7]), 171.13 nmol/L in data set [2] (setting [8]) and 5161.43 nmol/L in data set [2] (setting [9]). For the same compound, the figures for the “Brain Biotin” value in data set [2] (setting [8]) and in data set [2] (setting [9]) were 0.66 nmol/g and 1.65 nmol/g, respectively. Besides, the Absorption entry in data set [2] (compared to biotin) is given as “higher absorption”.
